Measurements as given in patent US4492650A, “A54556 Antibiotics and process for production thereof” (Eli Lilly and Company, priority 1982, dated 1985).
“And” between values parts separate entries of the source, which are not always exact repeats. Identical values can stand only once. Like-named read-outs stand apart in the source and are kept apart here. Bridge positions count the residues as written; N and C are the ends. Square brackets hold non-standard residues; d marks the D form. Peptide text beside a SMILES is read from it. * marks the point of attachment. ξ: configuration not given here. Octatrienoyl(2E,4E,6E) = C/C=C/C=C/C=C/C(=O)*; ξPro(4ξ-Me) = CC1CNC(C(=O)O)C1; NMeA = CN[CH](C)C(=O)O

What was measured:
[1] = test system: Staphylococcus aureus V41; settings: second test, Table 13, benzylpenicillin resistant
[2] = test system: Streptococcus sp. (Group D) X66; assay: Disc-plate sensitivity; type: cell-based; settings: second test, Table 13
[3] = Electrometric titration; type: physicochemical; settings: 66 percent dimethylformamide in water
Source text: Antibiotic A54556 factor A is a tan, amorphous solid. […] As determined by electron impact and field desorption mass spectrometry, A54556 factor A has a molecular weight of 718.

[4] = test system: Streptococcus sp. (Group D) 9960; assay: Disc-plate sensitivity; settings: read-out: Zone diameter
[5] = test system: Peptostreptococcus anaerobius 1428; assay: MIC, agar-dilution method; type: cell-based
[6] = test system: Peptococcus asaccharolyticus 1302; assay: MIC, agar-dilution method; type: cell-based; settings: Peptoniphilus asaccharolyticus
[7] = test system: Fusobacterium symbiosum 1470; assay: MIC, agar-dilution method; type: cell-based
[8] = test system: Bacteroides vulgatis 1211; assay: MIC, agar-dilution method; type: cell-based
[9] = Solubility
[10] = test system: Staphylococcus aureus 3130; settings: Table 12, benzylpenicillin resistant, methicillin resistant
[11] = test system: Streptococcus pyogenes (Group A) C203
[12] = test system: Streptococcus pneumoniae Park I
[13] = test system: Peptococcus prevoti 1281; assay: MIC, agar-dilution method; type: cell-based
[14] = test system: anaerobic bacteria; assay: Activity against anaerobic bacteria; type: cell-based; settings: agar-dilution method
[15] = test system: experimental bacterial infections; assay: In vivo antimicrobial activity against experimental bacterial infections; settings: mice, subcutaneously
Method: (§1) When two doses of test compound were administered subcutaneously to mice in illustrative infections, the activity is measured as an ED50 value [effective does in mg./kg. to protect fifty percent of the test animals: See Warren Wick et al., J. Bacteriol. 81, 233-235 (1961)]. The ED50 values for these antibiotic A54556 factors are recorded in Table 15, which follows.

[16] = test system: S. pyogenes; assay: In vivo protection against experimental bacterial infection in mice; settings: Streptococcus pyogenes, sc, two doses subcutaneously
Method: as §1

[17] = test system: Bacteroides melaninogenicus 1856/28; assay: MIC, agar-dilution method; type: cell-based; settings: Prevotella intermedia
Source text: (§2) Antibiotic A54556 factors A, B, C, D, E, F, G, and H have been tested and found to be active against a number of anaerobic bacteria, as recorded in Table 14, which follows, the MIC values having been determined by the agar-dilution method.

[18] = test system: Bacteroides melaninogenicus 2736; assay: MIC, agar-dilution method; type: cell-based
Source text: as §2

[19] = test system: Bacteroides fragilis 111; assay: MIC, agar-dilution method; type: cell-based
Source text: as §2

[20] = test system: Peptostreptococcus intermedius 1264; assay: MIC, agar-dilution method; type: cell-based
Source text: as §2

[21] = test system: Bacteroides thetaiotaomicron 1438; assay: MIC, agar-dilution method; type: cell-based
Source text: as §2

[22] = test system: Fusobacterium necrophorum 6054A; assay: MIC, agar-dilution method; type: cell-based
Source text: as §2

[23] = test system: Propionibacterium acnes 79; assay: MIC, agar-dilution method; type: cell-based; settings: Cutibacterium acnes
Source text: as §2

[24] = test system: Bacteroides fragilis 1877; assay: MIC, agar-dilution method; type: cell-based
Source text: as §2

[25] = test system: Clostridium difficile 2994; assay: MIC, agar-dilution method; type: cell-based; settings: Clostridioides difficile
Source text: as §2

[26] = test system: Clostridium septicum 1128; assay: MIC, agar-dilution method; type: cell-based
Source text: as §2

[27] = test system: Eubacterium aerofaciens 1235; assay: MIC, agar-dilution method; type: cell-based; settings: Collinsella aerofaciens
Source text: as §2

[28] = test system: Bacteroides fragilis 1936B; assay: MIC, agar-dilution method; type: cell-based
Source text: as §2

[29] = test system: Staphylococcus epidermidis EPI1; settings: second test, Table 13
[30] = test system: Bacteroides corrodens 1874; assay: MIC, agar-dilution method; type: cell-based; settings: Eikenella corrodens
[31] = test system: Staphylococcus aureus 3055; settings: benzylpenicillin-susceptible
[32] = test system: Clostridium perfringens 81; assay: microbe, parasite or virus in culture; type: cell-based
[33] = test system: Staphylococcus aureus 3074; settings: Table 12, benzylpenicillin resistant
[34] = 30 mcg./disc, second test, Table 13
[35] = 30 mcg./disc, second test, Table 13, listed as A
[36] = 300 mcg./disc, second test, Table 13

Q: With `C/C=C/C=C/C=C/C(=O)NC(Cc1ccccc1)C(=O)NC1COC(=O)C2CCCN2C(=O)C(C)NC(=O)C(C)N(C)C(=O)C2CC(C)CN2C1=O` (centres unmarked) [Factor A] ({Octatrienoyl(2E,4E,6E)}-FS[ξPro(4ξ-Me)][NMeA]AP; ester 2-C; configuration not given here) as the molecule, how does the Zone diameter ([1]; 30 mcg./disc) read?
A: The Zone diameter was 20 mm. and 22 mm.

Q: What about the Zone diameter ([1]; 300 mcg./disc) of the same molecule?
A: The Zone diameter was 27 mm. and 33 mm.

Q: What about the Zone diameter ([2]; 30 mcg./disc, listed as A) of the same molecule?
A: The Zone diameter was 28 mm.

Q: What about the Zone diameter ([2]; 300 mcg./disc) of the same molecule?
A: Its Zone diameter is 29 mm.

Q: And the zone of inhibition at 30 µg/disc ([2]; Streptococcus, read-out: Zone diameter, 30 mcg./disc)?
A: Its zone of inhibition at 30 µg/disc is 23 mm.

Q: What about the zone of inhibition at 300 µg/disc ([2]; Streptococcus, read-out: Zone diameter, 300 mcg./disc) of the same molecule?
A: Its zone of inhibition at 300 µg/disc is 33 mm.

Q: And the titratable groups [3]?
A: Its titratable groups is “no titratable groups”.

Q: And the zone of inhibition at 30 µg/disc [4]?
A: Its zone of inhibition at 30 µg/disc is 22.4 mm.

Q: What about the zone of inhibition at 300 µg/disc [4] of the same molecule?
A: Its zone of inhibition at 300 µg/disc is 28 mm.

Q: And the MIC [5]?
A: The MIC was > 128 µg/mL.

Q: And the MIC [6]?
A: The MIC was > 128 µg/mL.

Q: And the MIC [7]?
A: The MIC was > 128 µg/mL.

Q: And the MIC [8]?
A: Its MIC is > 128 µg/mL.

Q: And the “solubility in organic solvents” value ([9]; lower alcohols (methyl, ethyl, isopropyl, n-propyl, n-butyl), acetone, ethyl acetate, tetrahydrofuran, pyridine, dimethyl sulfoxide)?
A: Its value is “soluble”.

Q: What about the solubility in water ([9]; water) of the same molecule?
A: The solubility in water was “insoluble”.

Q: And the Zone diameter ([10]; 30 mcg./disc)?
A: Its Zone diameter is 21.7 mm.

Q: What about the Zone diameter ([10]; 300 mcg./disc) of the same molecule?
A: Its Zone diameter is 25.5 mm.

Q: What about the Zone diameter ([11]; 30 mcg./disc, Table 12) of the same molecule?
A: Its Zone diameter is 24.0 mm.

Q: And the Zone diameter [11, 34]?
A: Its Zone diameter is 25 mm.

Q: What about the Zone diameter [11, 35] of the same molecule?
A: The Zone diameter was 20 mm.

Q: And the Zone diameter ([11]; 300 mcg./disc, Table 12)?
A: The Zone diameter was 30.0 mm.

Q: What about the Zone diameter [11, 36] of the same molecule?
A: Its Zone diameter is 30 mm. and 32 mm.

Q: And the Zone diameter ([12]; 30 mcg./disc, Table 12)?
A: Its Zone diameter is 26.0 mm.

Q: What about the Zone diameter [12, 35] of the same molecule?
A: Its Zone diameter is 18 mm. and 22 mm.

Q: And the Zone diameter ([12]; 300 mcg./disc, Table 12)?
A: Its Zone diameter is 34.0 mm.

Q: And the Zone diameter [12, 36]?
A: Its Zone diameter is 33 mm. and 35 mm.

Q: What about the MIC [13] of the same molecule?
A: The MIC was > 128 µg/mL.

Q: What about the “activity against a number of anaerobic bacteria” value [14] of the same molecule?
A: The value was “active”.

Q: What about the “in vivo antimicrobial activity against experimental bacterial infections” value [15] of the same molecule?
A: Its value is “have shown in vivo antimicrobial activity”.

Q: What about the ED50 [16] of the same molecule?
A: Its ED50 is > 70 mg/kg.

Q: What about the MIC [17] of the same molecule?
A: Its MIC is > 128 µg/mL.

Q: And the MIC [18]?
A: The MIC was > 128 µg/mL.

Q: What about the MIC [19] of the same molecule?
A: The MIC was > 128 µg/mL.

Q: And the MIC [20]?
A: Its MIC is > 128 µg/mL.

Q: What about the MIC [21] of the same molecule?
A: Its MIC is > 128 µg/mL.

Q: And the MIC [22]?
A: The MIC was > 128 µg/mL.

Q: What about the MIC [23] of the same molecule?
A: Its MIC is > 128 µg/mL.

Q: And the MIC [24]?
A: Its MIC is > 128 µg/mL.

Q: What about the MIC [25] of the same molecule?
A: Its MIC is > 128 µg/mL.

Q: And the MIC [26]?
A: The MIC was > 128 µg/mL.

Q: What about the MIC [27] of the same molecule?
A: The MIC was > 128 µg/mL.

Q: What about the MIC [28] of the same molecule?
A: Its MIC is > 128 µg/mL.

Q: What about the Zone diameter ([29]; 30 mcg./disc) of the same molecule?
A: Its Zone diameter is 20 mm.

Q: And the Zone diameter ([29]; 300 mcg./disc)?
A: Its Zone diameter is 22 mm. and 28 mm.

Q: What about the MIC [30] of the same molecule?
A: The MIC was > 128 µg/mL.

Q: What about the Zone diameter ([31]; 30 mcg./disc, Table 12) of the same molecule?
A: The Zone diameter was 19.2 mm.

Q: What about the Zone diameter [31, 34] of the same molecule?
A: The Zone diameter was 19 mm. and 21 mm.

Q: And the Zone diameter ([31]; 300 mcg./disc, Table 12)?
A: Its Zone diameter is 24.3 mm.

Q: What about the Zone diameter [31, 36] of the same molecule?
A: Its Zone diameter is 24 mm.

Q: What about the Zone diameter ([31]; 300 mcg./disc, second test, Table 13, listed as A) of the same molecule?
A: Its Zone diameter is 28 mm.

Q: And the MIC [32]?
A: Its MIC is > 128 µg/mL.

Q: And the Zone diameter ([33]; 30 mcg./disc)?
A: Its Zone diameter is 18.3 mm.

Q: What about the Zone diameter ([33]; 300 mcg./disc) of the same molecule?
A: The Zone diameter was 20.9 mm.
